{"source": "patent US20130226069A1", "about": "“ACNE THERAPEUTIC AGENT AND SEBUM SECERNENT INHIBITOR WHICH COMPRISE INDOLE-3-ALKYLCARBO XYLICACID, AND KITS FOR PHOTODYNAMIC THERAPY CONTAINING THE SAME” (WELSKIN CO., LTD., priority 2007, published 2013)", "key": {"P. acnes 706486": {"tested_on": "P. acnes 706486", "assay": "Bacteriocidal effect of IAA with or without IPL irradiation on P. acnes, colony count", "assay_type": "cell-based, Propionibacterium acnes", "description": "(§1) P. acnes 706486 and S. aureus W-1-14 was used for this experiment. Mueller Hinton II broth (Becton, Dickinson Co., Sparks, U.S.A) was used for culture of bacteria. The cultured S. aureus colony was dissolved with phosphate buffered saline (PBS, Invitrogen Co., NY, U.S.A) such that the McFarland turbidity became 0.5. The resultant bacterial solution was at the concentration of […]. Then, the bacterial solution was further diluted to the concentration of 1×10^8/ml and 10 μl of the bacterial solution was spread onto the Mueller Hinton II agar (Becton, Dickinson Co., Sparks, U.S.A) plate followed by drying in clean bench for 30 min. IAA was dissolved with Dulbecco's phosphate buffered saline (DPBS, Invitrogen Co., NY, U.S.A) to obtain samples of IAA concentration of 20 mM, 10 mM, 5 mM, 1 mM and 0.5 mM. Three minutes after adding 4 ml of 0 mM, 0.5 mM, 1 mM, 5 mM, 10 mM, and 20 mM IAA solution to 6 bacterial solution inoculated mediums respectively, Intermittent Pulse Laser (IPL, Ellipse Flex DDD, Denmark) was irradiated to the mediums. 10 J/cm^2 of the IPL of wavelength of 400 nm to 720 nm was irradiated to the mediums, using an applicator equipped with a filter. One minute after IPL irradiation, the mediums were washed for two times with PBS and incubated at 37° C. for 24 hrs and then the number of colonies was counted respectively. Four minutes after adding 4 ml of 0 mM, 0.5 mM, 1 mM, 5 mM, 10 mM, and 20 mM IAA solution to another 6 bacterial solution inoculated mediums, the mediums were treated as the above-mentioned process except that IPL was not irradiated, and then the number of colonies was counted respectively. The above-mentioned process was repeated except that P. acnes inoculated mediums were employed in place of S. aureus inoculated mediums and cultured in an anaerobic chamber substituted with nitrogen, and then the number of colonies was counted."}, "S. aureus W-1-14": {"tested_on": "S. aureus W-1-14", "assay": "Bacteriocidal effect of IAA with or without IPL irradiation on S. aureus, colony count", "assay_type": "cell-based, Staphylococcus aureus", "description": "as §1"}, "[1]": {"assay": "Improvement of acne by IAA and light, half-face, count of inflammatory lesions", "assay_type": "in vivo", "from_the_text": "IAA was applied to only half of face and 20 J of IPL was irradiated. The face was irradiated 3 times at 2 weeks intervals and the number of inflammatory lesions was counted."}, "[2]": {"assay": "Sebum secretion inhibition by IAA and IPL, half-face", "assay_type": "in vivo", "description": "As described in Example 2, IAA was applied to only half of face and 20 J of IPL was irradiated. The face was irradiated 3 times at 2 weeks intervals and the amount of sebum secretion was measured."}, "[3]": {"details": "IAA with IPL, irradiated 3 times at 2 weeks intervals"}}, "data": [{"smiles": "O=C(O)Cc1c[nH]c2ccccc12", "note": "[IAA, Indole-3-acetic acid]", "values": [{"measurement": "number of colonies", "setting": "P. acnes 706486; 5 mM or more IAA solution, IPL not irradiated", "value": "68 % of control group"}, {"measurement": "growth of bacteria", "setting": "P. acnes 706486; 20 mM IAA solution, with IPL irradiation", "value": "no growth of bacteria"}, {"measurement": "inhibitory effects on P. acnes proliferation", "setting": "P. acnes 706486; IAA with IPL irradiation, 10 J/cm^2, 400 nm to 720 nm", "value": "dramatic inhibitory effects"}, {"measurement": "number of colonies", "setting": "S. aureus W-1-14; 20 mM IAA solution, without IPL irradiation", "value": "60 % of control group"}, {"measurement": "number of colonies", "setting": "S. aureus W-1-14; IPL irradiation and 0.5 mM IAA solution", "value": "63 % of control group"}, {"measurement": "number of colonies", "setting": "S. aureus W-1-14; IPL irradiation and 1 mM IAA solution", "value": "32 % of control group"}, {"measurement": "Number of inflammatory lesion (mean ± SD), T1", "setting": "[1]; IAA + IPL 20 J, after 2 weeks, n = 14, baseline T0 16.21 ± 9.18", "value": "15.50 ± 9.03"}, {"measurement": "Number of inflammatory lesion (mean ± SD), T2", "setting": "[1]; IAA + IPL 20 J, after 4 weeks, n = 14, baseline T0 16.21 ± 9.18", "value": "13.93 ± 8.54"}, {"measurement": "Number of inflammatory lesion (mean ± SD), T3", "setting": "[1]; IAA + IPL 20 J, after 6 weeks, n = 14, baseline T0 16.21 ± 9.18", "value": "13.93 ± 8.30"}, {"measurement": "Change in number of inflammatory lesion T1-T0 (mean ± SD)", "setting": "[1]; IAA + IPL, 2 weeks versus baseline, p 0.246", "value": "−0.71 ± 2.20"}, {"measurement": "Change in number of inflammatory lesion T2-T0 (mean ± SD)", "setting": "[1]; IAA + IPL, 4 weeks versus baseline, p 0.024", "value": "−2.29 ± 3.36"}, {"measurement": "Change in number of inflammatory lesion T3-T0 (mean ± SD)", "setting": "[1]; IAA + IPL, 6 weeks versus baseline, p 0.026", "value": "−2.29 ± 3.41"}, {"measurement": "improvement of acne (number of inflammatory lesions)", "setting": "[1]; [3]", "value": "significant improvement"}, {"measurement": "sebum secretion (mean ± SD), T1", "setting": "[2]; IAA + IPL 20 J, after 2 weeks, n = 14, baseline T0 99.64 ± 56.93", "value": "114.71 ± 63.83"}, {"measurement": "sebum secretion (mean ± SD), T2", "setting": "[2]; IAA + IPL 20 J, after 4 weeks, n = 14, baseline T0 99.64 ± 56.93", "value": "70.43 ± 42.80"}, {"measurement": "sebum secretion (mean ± SD), T3", "setting": "[2]; IAA + IPL 20 J, after 6 weeks, n = 14, baseline T0 99.64 ± 56.93", "value": "65.79 ± 27.90"}, {"measurement": "Change of sebum secretion T1-T0 (mean ± SD)", "setting": "[2]; IAA + IPL, 2 weeks versus baseline, p 0.433", "value": "15.07 ± 69.70"}, {"measurement": "Change of sebum secretion T2-T0 (mean ± SD)", "setting": "[2]; IAA + IPL, 4 weeks versus baseline, p 0.032", "value": "−29.21 ± 45.67"}, {"measurement": "Change of sebum secretion T3-T0 (mean ± SD)", "setting": "[2]; IAA + IPL, 6 weeks versus baseline, p 0.015", "value": "−33.86 ± 44.98"}, {"measurement": "inhibitory effect of sebum secretion", "setting": "[2]; [3]", "value": "significant inhibitory effect of sebum secretion"}]}]}
